In patent US20260337189A1, “Cryptolepine Salt Derivative, Preparation Method, and Use Thereof” (ZHEJIANG XINNONG CHEMICAL CO., LTD., priority 2023, published 2026):

What was measured:
[1] = test system: tobacco Mosaic virus (TMV); assay: Live treatment effect against tobacco Mosaic virus (TMV); assay type: in vivo; conditions: 500 mg/L, tobacco Xanthi nc, sprayed after inoculation, virus 10 μg/mL, 3 days; for inhibition at 500 µg/mL: Tobacco mosaic virus, 72 h, read-out: Relative inhibition rate, live treatment effect
Procedure: (§1) Determination of anti-tobacco Mosaic virus (TMV) activity by the following procedure:
(§2) After weighing, cryptolepine salt derivative, ningnanmycin and the original drug of ribavirin were dissolved in DMF to obtain 1×10^5 μg/mL mother solution, and then diluted to the required concentration with 1%. Tween 80 aqueous solution.
(§3) Select the 3-5 leaf stage of tobacco Xanthi nc with uniform growth, use a brush to vaccinate the virus in the whole leaf, the virus concentration is 10 μg/mL, and the leaf was washed with running water after inoculation. After the leaves were dried, the whole plant was sprayed with test sample, repeated 3 times every treatment, and 1%. Tween 80 aqueous solution was set as control. After 3 days, the number of disease spots was recorded and the prevention and control effect was calculated.
(§4) Relative inhibition rate (%)=[(number of dead spots of control group-number of dead spots of test sample group)/number of dead spots of control group]×100%.

[2] = test system: tobacco Mosaic virus (TMV); assay: Living passivation activity test against tobacco Mosaic virus (TMV); assay type: in vivo; conditions: 500 mg/L, tobacco Xanthi nc, sample mixed with virus juice 30 min, virus 20 μg/mL, 3 days; for inhibition at 500 µg/mL: Tobacco mosaic virus, read-out: Relative inhibition rate, living passivation activity test
Procedure: as §1, §2
(§5) Select the 3-5 leaf stage of tobacco Xanthi nc with uniform growth, mix the test sample agent with the same volume of virus juice to passivate for 30 min, friction inoculation, virus concentration 20 μg/mL, the leaf was washed with running water after inoculation, repeat 3 times, set 1%. Tween 80 aqueous solution as control. 3 days later, the number of disease spots was calculated.
as §4
(§6) Anti-tobacco Mosaic virus passivation activity test of all compounds was at a treatment dose of 500 μg/mL. The positive control was the commercial anti-plant virus agent viriazole.

[3] = test system: tobacco Mosaic virus (TMV); assay: Live protection function against tobacco Mosaic virus (TMV); assay type: in vivo; conditions: for inhibition at 500 µg/mL: Tobacco mosaic virus, read-out: Relative inhibition rate, live protection function; for Relative inhibition rate, live protection function: 500 mg/L, tobacco Xanthi nc, sprayed 24 h before inoculation, virus 10 μg/mL, 3 days
Procedure: as §1, §2
(§7) Select the 3-5 leaf stage of tobacco Xanthi nc with uniform growth, spray the whole plant, repeat each treatment 3 times, and set 1%. Tween80 aqueous solution as control. 24 h later, the leaf surface was coated with emery (500 mesh), the disease venom was dipped with a brush, and the whole leaf surface was gently rubbed twice along the direction of the branch pulse by using the brush, the leaf was supported by palm of hand, the virus concentration was 10 μg/mL, and the leaf was washed by water after inoculation. After 3 days, the number of disease spots was recorded and the prevention and control effect was calculated.
as §4

rice sheath blight = assay: Test of resistance to rice sheath blight (bactericidal activity test); assay type: in vivo; conditions: for Resistance to rice sheath blight: 400 mg/L, rice seedlings, sprayed 24 h before inoculation, 6 days after inoculation, visual inspection; for bactericidal activity against rice sheath blight: live pot test, Table 5, 400 mg/L
Procedure: Bactericidal activity test, the determination procedure is as follows:
Test of resistance to rice sheath blight: Select uniformly growing rice seedlings and spray them on the leaves at the set concentration, set a water spraying group as blank control, every treatment was repeated twice. After 24 h, the rice seedlings were inoculated with rice sheath blight strains and placed at room temperature (25±4° C.) for normal management after inoculation. The prevention and control effect was investigated by visual inspection 6 days after inoculation.

Plasmodium falciparum = conditions: cited from earlier work
[4] = test system: tobacco Mosaic virus (TMV); assay: Anti-tobacco Mosaic virus (TMV) activity, overall comparison of Test Example 1; assay type: in vivo; conditions: 500 μg/mL; Table 4
Procedure: as §1, §2, §7, §3, §5, §4, §6

Compound	inhibition at 500 µg/mL [1] [%]	inhibition at 500 µg/mL [2] [%]	inhibition at 500 µg/mL [3] [%]	Resistance to rice sheath blight (rice sheath blight) [%]	TMV activity compared with ribavirin [4]	other results
C[n+]1c2ccccc2c(NCC2CCNCC2)c2[nH]c3ccccc3c21.[I-] [Example 42]	30.2 ± 2.1	25.1 ± 0.2	28.1 ± 3	25 ± 5		
Cn1c2c3ccccc3nc-2cc2ccccc21 [cryptolepine]						activity against Plasmodium falciparum compared with Chloroquine (Plasmodium falciparum): comparable activity against Plasmodium falciparum to Chloroquine
C[n+]1c2ccccc2c(NCCCN2CCCCC2)c2[nH]c3ccccc3c21 [Example 47]				45 ± 5		Relative inhibition rate, live treatment effect [1]: 33.3 ± 2.0%; Relative inhibition rate, living passivation activity test [2]: 35.7 ± 0.3%; Relative inhibition rate, live protection function [3]: 36.4 ± 2.8%; bactericidal activity against rice sheath blight (rice sheath blight): more than 50%
Cc1ccc(S(=O)(=O)n2c3ccc(F)cc3c3c2cc2ccccc2[n+]3C)cc1 [Example 4]				60 ± 0		Relative inhibition rate, live treatment effect [1]: 18.6 ± 1.2%; Relative inhibition rate, living passivation activity test [2]: 14.1 ± 1.3%; Relative inhibition rate, live protection function [3]: 21.6 ± 3.4%; bactericidal activity against rice sheath blight (rice sheath blight): more than 50%
C[n+]1c2ccccc2c(NCCCN)c2[nH]c3ccccc3c21.[I-] [Example 33]	51.7 ± 3.6	49.8 ± 3.1	57.9 ± 4.6	40 ± 0	better TMV activity than the ribavirin	anti-TMV activity compared with commercial Ningnanmycin [4]: comparable to that of commercial Ningnanmycin
C[n+]1c2ccccc2c(NC2CCCC2)c2[nH]c3ccccc3c21 [Example 29]				30 ± 0		Relative inhibition rate, live treatment effect [1]: 36.5 ± 2.3%; Relative inhibition rate, living passivation activity test [2]: 30.5 ± 0.9%; Relative inhibition rate, live protection function [3]: 38.6 ± 4.6%
Cc1ccc(S(=O)(=O)n2c3ccc(I)cc3c3c2cc2ccccc2[n+]3C)cc1.[Cl-] [Example 7]	43 ± 3.5	47.7 ± 3.1	44.5 ± 0.4	40 ± 0	better TMV activity than the ribavirin	
C[n+]1c2ccccc2c(NC2CCNCC2)c2[nH]c3ccccc3c21.[I-] [Example 41]				40 ± 0	better TMV activity than the ribavirin	
C[n+]1c2ccccc2c(NC2CCNC2)c2[nH]c3ccccc3c21.[I-] (stereo not shown) [Example 40]				20 ± 0	better TMV activity than the ribavirin	
Cc1ccc(S(=O)(=O)n2c3ccccc3c3c2cc2ccccc2[n+]3CC(C)(C)C)cc1 [Example 20]				55 ± 5	better TMV activity than the ribavirin	bactericidal activity against rice sheath blight (rice sheath blight): more than 50%; anti-TMV activity compared with commercial Ningnanmycin [4]: comparable to that of commercial Ningnanmycin
CCCCCNc1c2ccccc2[n+](C)c2c1[nH]c1ccccc12 [Example 24]	30.3 ± 0.8	35.2 ± 1	36.9 ± 3.7	30 ± 0		
CCCCCCCCCCCCNc1c2ccccc2[n+](C)c2c1[nH]c1ccccc12 [Example 25]	22.1 ± 1.1	35.1 ± 0.1	27.3 ± 3	20 ± 0		
